Data: patent US4684650A, “Antihypertensive fluorophenylindanyl imidazolidinoneethylpiperazines” (priority 1984, dated 1987)
Where two headings read alike, the source gives them in different places.

Legend:
[1] = test system: methylphenidate induced stereotypies; experiment: Methylphenidate Antagonism; assay type: in vivo, mice; details: for ED50: Mus musculus, ip, read-out: MePh antg. ED50, i.p., mice, 2 hours before methylphenidate 60 mg/kg s.c.
Procedure: The experiments were made as described by Pedersen and Christensen (1972) Acta Pharmacol. et Toxicol. 31, 488-496.--Briefly, test compounds or saline were injected i.p. 2 hours before methylphenidate, 60 mg/kg s.c. 3 pairs of mice were used for each dose level. After methylphenidate injection the mice were placed in observation cages for one hour. The cages were placed on corrugated paper, the corrugation facing upwards.

[2] = test system: spontaneous hypertensive rats (SHR); experiment: Antihypertensive effect in spontaneous hypertensive rats (SHR); assay type: in vivo; details: for change in vivo at 5 mg/kg / ED10: Rattus norvegicus, ip; for change in vivo at 5 mg/kg: 1 h
Procedure: Antihypertensive effect in spontaneous hypertensive rats (SHR)
The femoral artery of male SHR is cannulated in anaestesia for blood pressure recordings. After a stabilization period of 11/2 h after discontinuation of the anaesthesia initial blood pressure curves are recorded and the systolic (SAP)/diastolic (DAP) pressure determined (-20, -10, 0, min. p.i.) Test substance is injected i.p. and the pressure curve recorded for one hour. The change in SAP/DAP is calculated in percent at mean initial values at different times (10, 20, 30, 40, 50 and 60 minutes after injection). At least two SHR are used per dose level. The maximum change is used for estimation of the drug effect.

[3] = test system: phenylephrine pressor responses; experiment: Antagonism to phenylephrine pressor responses in pithed rats; assay type: in vivo; details: for change in vivo at […] / ED50: Rattus norvegicus, iv; for change in vivo at […]: read-out: Effects on pressor response of Phenylephrine, % eff. of […], pithed rats, […], jugular vein, read-out: Effects on pressor response of Phenylephrine, % eff. of 0.31 mg/kg; for ED50: read-out: Effects on pressor response of Phenylephrine, ED50
Procedure: (§1) The rat is anaesthetized with ether, tracheotomized, artificial respired and pithed. The knitting-needle is introduced through the right orbita into the cranial cavity and passed through foramen magnum into the spinal canal as far as possible. The spinal cord is destroyed by turning the needle. After vagotomi both carotides are ligated and a catheter placed in the right one for pressure recording. The rat is adrenalectomized. […] The initial and post medication mean pressor effect is calculated, and the mean pressor effect is calculated as % of the initial value. Two to five preparations are employed for each dose level. The ED50 is determined.

5-HT pressor responses = experiment: Antagonism to 5-HT pressor responses in pithed rats; assay type: in vivo; details: for change in vivo at 0.02 mg/kg / ED50: Rattus norvegicus, iv
Procedure: as §1

[4] = test system: 1-5-HTP-induced head shakes; experiment: 1-5-HTP-induced head shakes; assay type: in vivo; details: Rattus norvegicus, sc, rats, 1-5-HTP 75 mg/kg i.p. after citalopram; read-out: 1-5-HTP-antg. ED50
Procedure: The rats were pretreated subcutaneously with test compound or saline simultaneously with or 90 min before injection of citalopram (10 mg/kg s.c.).
Each group consisted of 4-12 rats.

5-HT2 receptors = target: T1, 5-HT2 receptors (Rattus norvegicus, UniProt P14842); experiment: 3H-spiroperidol binding to 5-HT2 receptors; details: rat whole cortex, 0.5 nM 3H-spiroperidol, 0.3 μM sulpiride; read-out: 3H-SPI binding 5-HT2 IC50
T1 construct: Rat whole cortex was homogenized by an Ultra Turrax homogenizer; from tissue; host or cells: rat whole cerebral cortex, crude washed membranes
Procedure: ^3 H-spiroperidol binding to 5-HT2 receptors.
Rat whole cortex was homogenized by an Ultra Turrax homogenizer in 100 vol. of 50 mM Tris buffer pH 7.7. The homogenate was centrifuged at 20,000 g for 10 minutes at 4° C. The pellet was rehomogenized in another volume of buffer and centrifuged as mentioned above. The final pellet was rehomogenized in 50 mM Tris buffer pH 7.7 containing 120 mM NaCl, 5 mM KCl, 2 mM CaCl2 and 1 mM MgCl2 (ion mix) in a volume corresponding to 12.5 mg original tissue per ml.
Test drugs were dissolved in water; ^3 H-spiroperidol (NEN, 28-30 Ci/mmol) was diluted in 3 μM sulpiride, and 800 μl membrane suspension were added. Final concentration of ligand and sulpiride were 0.5 nM and 0.3 μM, respectively. The samples were incubated at 37° C. for 10 min. The samples were then filtered under vacuum through Whatman GF/B glass-fiber filters. The tubes were then rinsed with 5 ml incubation buffer, which was poured on the filters. The filters were finally washed twice with 5 ml buffer and placed in counting vials. After addition of 5 ml scintillation fluid (Lumagel) radioactivity was estimated by liquid scintillation counting. Non-specific binding was obtained by adding Mianserin (1 μM) to separate samples. Each drug was tested at least twice at 5 concentrations in triplicate. IC50-values were determined from log concentration-response curves.--The presence of sulpiride excluded binding to dopamine D-2 receptors.

[5] = 5 mg/kg ip, diastolic pressure (DAP), max change within one hour, read-out: Antihypertensive eff. SHR, max eff. in % of 5 mg/kg ip, DAP
[6] = 5 mg/kg ip, systolic pressure (SAP), max change within one hour, read-out: Antihypertensive eff. SHR, max eff. in % of 5 mg/kg ip, SAP
[7] = pithed rats, 0.02 mg/kg, jugular vein, read-out: Effects on pressor response of 5-HT, % eff. of 0.02 mg/kg
[8] = read-out: Antihypertensive eff. SHR, max eff. in % of 5 mg/kg ip, DAP, 5 mg/kg ip, diastolic pressure (DAP), max change within one hour
[9] = read-out: Antihypertensive eff. SHR, max eff. in % of 5 mg/kg ip, SAP, 5 mg/kg ip, systolic pressure (SAP), max change within one hour
[10] = read-out: Effects on pressor response of 5-HT, % eff. of 0.02 mg/kg, pithed rats, 0.02 mg/kg, jugular vein
[11] = 5 mg/kg ip, diastolic pressure (DAP), max change within one hour
[12] = 5 mg/kg ip, systolic pressure (SAP), max change within one hour
[13] = pithed rats, 0.02 mg/kg, jugular vein

T1 sequence (P14842 whole entry): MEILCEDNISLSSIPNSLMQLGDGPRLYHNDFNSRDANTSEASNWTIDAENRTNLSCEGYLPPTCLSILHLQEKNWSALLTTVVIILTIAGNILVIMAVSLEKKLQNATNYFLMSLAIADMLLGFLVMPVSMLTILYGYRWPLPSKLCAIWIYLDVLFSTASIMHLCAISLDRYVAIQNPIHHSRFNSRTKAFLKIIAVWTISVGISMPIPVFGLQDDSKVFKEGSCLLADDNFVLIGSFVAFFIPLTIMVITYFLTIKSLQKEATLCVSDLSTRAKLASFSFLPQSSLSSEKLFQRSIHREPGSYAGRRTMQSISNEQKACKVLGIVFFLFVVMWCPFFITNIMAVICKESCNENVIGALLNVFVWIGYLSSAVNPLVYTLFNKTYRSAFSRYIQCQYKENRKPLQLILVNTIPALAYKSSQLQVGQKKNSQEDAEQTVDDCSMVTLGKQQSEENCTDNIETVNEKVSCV

SMILES: CC(C)c1ccc2c(c1)[C@H](N1CCN(CCN3CCNC3=O)CC1)C[C@H]2c1ccc(F)cc1 (relative stereo) [compound 5]
- ED50 [1]: 24 µmol/kg
- change in vivo at 5 mg/kg [2, 5]: -10%
- change in vivo at 5 mg/kg [2, 6]: -9%
- change in vivo at […] [3]: -33%
- change in vivo at 0.02 mg/kg (5-HT pressor responses; [7]): -6%
- ED50 [4]: 1.7 µmol/kg

SMILES: O=C1NCCN1CCN1CCN([C@@H]2C[C@@H](c3ccc(F)cc3)c3ccc(C(F)(F)F)cc32)CC1 (relative stereo) [compound 6]
- ED50 [1]: 1.8 µmol/kg
- IC50 (5-HT2 receptors): 9.9 nM
- change in vivo at 5 mg/kg [2, 8]: -14%
- change in vivo at 5 mg/kg [2, 9]: -10%
- change in vivo at 0.02 mg/kg (5-HT pressor responses; [10]): -52%
- ED50 [4]: 0.29 µmol/kg

SMILES: O=C1OCCN1CCN1CCN([C@@H]2C[C@@H](c3ccc(F)cc3)c3ccccc32)CC1 (relative stereo) [compound 7]
- ED50 [1]: > 83 µmol/kg
- change in vivo at 5 mg/kg [2, 5]: -19%
- change in vivo at 5 mg/kg [2, 6]: -15%
- change in vivo at […] [3]: -18%
- change in vivo at 0.02 mg/kg (5-HT pressor responses; [7]): -4%
- ED50 [4]: 2.7 µmol/kg

SMILES: O=C1OCCN1CCN1CCN([C@@H]2C[C@@H](c3ccc(F)cc3)c3ccc(F)cc32)CC1 (relative stereo) [compound 8]
- ED50 [1]: 18 µmol/kg
- change in vivo at 5 mg/kg [2, 5]: -26%
- change in vivo at 5 mg/kg [2, 6]: -20%
- change in vivo at […] [3]: -19%
- ED50 ([3]; pithed rats, jugular vein): 4.35 µmol/kg
- Phenylephr. antg./5-HT antg. (ratio) ([3]; pithed rats, ratio of phenylephrine ED50 to 5-HT ED50): 52
- change in vivo at 0.02 mg/kg (5-HT pressor responses; [7]): -40%
- ED50 (5-HT pressor responses; pithed rats, jugular vein, read-out: Effects on pressor response of 5-HT, ED50): 0.084 µmol/kg
- ED50 [4]: 1.3 µmol/kg

SMILES: CN1CCN(CCN2CCN([C@@H]3C[C@@H](c4ccc(F)cc4)c4ccccc43)CC2)C1=O (relative stereo) [compound 11]
- ED50 [1]: > 80 µmol/kg
- IC50 (5-HT2 receptors): 13 nM
- change in vivo at 5 mg/kg [2, 8]: -8%
- change in vivo at 5 mg/kg [2, 9]: -6%
- change in vivo at 0.02 mg/kg (5-HT pressor responses; [10]): -81%
- ED50 [4]: 1.4 µmol/kg

SMILES: CCN1CCN(CCN2CCN([C@@H]3C[C@@H](c4ccc(F)cc4)c4ccc(F)cc43)CC2)C1=O (relative stereo) [compound 12]
- ED50 [1]: > 75 µmol/kg
- IC50 (5-HT2 receptors): 4.9 nM
- change in vivo at 5 mg/kg [2, 8]: 4%
- change in vivo at 5 mg/kg [2, 9]: 4%
- peripheral or central action ([2]; in words): marked central effects
- change in vivo at 0.02 mg/kg (5-HT pressor responses; [10]): -94%
- ED50 [4]: 0.092 µmol/kg

SMILES: O=C1OCCN1CCCN1CCN([C@@H]2C[C@@H](c3ccc(F)cc3)c3ccc(F)cc32)CC1 (relative stereo) [compound 15]
- ED50 [1]: 39 µmol/kg
- change in vivo at 5 mg/kg [2, 5]: -18%
- change in vivo at 5 mg/kg [2, 6]: -12%
- change in vivo at […] [3]: -7%
- change in vivo at 0.02 mg/kg (5-HT pressor responses; [7]): -31%
- ED50 [4]: 0.31 µmol/kg

SMILES: O=c1[nH]c2ccccc2c(=O)n1CCN1CCN([C@H]2C[C@H](c3ccc(F)cc3)c3ccccc32)CC1 (relative stereo) [compound 19]
- ED50 [1]: > 70 µmol/kg
- Antihypertensive eff. SHR, max eff. in % of 5 mg/kg ip, DAP [2, 11]: -27%
- Antihypertensive eff. SHR, max eff. in % of 5 mg/kg ip, SAP [2, 12]: -22%
- Effects on pressor response of Phenylephrine, % eff. of […] ([3]; pithed rats, jugular vein): -42%
- Effects on pressor response of 5-HT, % eff. of 0.02 mg/kg (5-HT pressor responses; [13]): -35%

SMILES: Fc1ccc([C@@H]2C[C@@H](N3CCN(CCN4CCCNC4=S)CC3)c3cc(F)ccc32)cc1 (relative stereo) [compound 26]
- IC50 (5-HT2 receptors): 7.7 nM
- change in vivo at 5 mg/kg [2, 8]: -19%
- change in vivo at 5 mg/kg [2, 9]: -13%
- change in vivo at 0.02 mg/kg (5-HT pressor responses; [10]): -67%
- ED50 [4]: 0.11 µmol/kg

SMILES: O=C1NCCN1CCN1CCN([C@@H]2C[C@@H](c3ccc(F)cc3)c3ccc(Cl)cc32)CC1 (single isomer, unassigned) [-20]
- MePh antg. ED50 ([1]; i.p., mice, 2 hours before methylphenidate 60 mg/kg s.c.): > 67 µmol/kg
- Antihypertensive eff. SHR, max eff. in % of 5 mg/kg ip, DAP [2, 11]: -16%
- Antihypertensive eff. SHR, max eff. in % of 5 mg/kg ip, SAP [2, 12]: -7%
- Effects on pressor response of Phenylephrine, % eff. of […] ([3]; pithed rats, jugular vein): +21%
- Effects on pressor response of 5-HT, % eff. of 0.02 mg/kg (5-HT pressor responses; [13]): -11%
- ED50 [4]: < 8.4 µmol/kg

SMILES: O=C(c1ccc(F)cc1)C1CCN(CCn2c(=O)[nH]c3ccccc3c2=O)CC1 [Ketanserin, reference compound]
- ED50 [1]: 101 µmol/kg
- change in vivo at 5 mg/kg [2, 8]: -24%
- change in vivo at 5 mg/kg [2, 9]: -32%
- ED10 ([2]; read-out: Antihypertensive eff. SHR, ED10 DAP): 1.2 µmol/kg
- ED10 ([2]; read-out: Antihypertensive eff. SHR, ED10 SAP): 1.6 µmol/kg
- ED50 [3]: 3.6 µmol/kg
- change in vivo at 0.02 mg/kg (5-HT pressor responses; [10]): -46%
- ED50 (5-HT pressor responses; read-out: Effects on pressor response of 5-HT, ED50, pithed rats, jugular vein): 0.033 µmol/kg
- ED50 [4]: 0.58 µmol/kg
